Data taken from patent US20260285850A1, “SUBSTITUTED OXAZOLIDINONES AND IMIDAZOLINONES AS HERBICIDES” (FMC CORPORATION, priority 2023, published 2026).

Columns and labels:
Format in all cases: in vivo
[1] = system: sedge, umbrella (small-flower umbrella sedge, Cyperus difformis); test: Test B flooded paddy test, visual plant response rating 0-100; details: 250 g ai/ha, Flood, applied to paddy water, evaluated after 13 days
Method in brief: (§1)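 Greenhouse, 13 d. Seedlings at 2-leaf stage, pots flooded to 3 cm, compound delivered into floodwater, water level held constant. Evaluated visually relative to controls.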

rice (Oryza sativa) = test: as above; details: 250 g ai/ha, Flood, applied to paddy water, evaluated after 13 days
Method in brief: as §1

[2] = system: barnyardgrass (Echinochloa crusgalli); test: as above; details: 250 g ai/ha, Flood, applied to paddy water, evaluated after 13 days
Method in brief: as §1

[3] = system: ducksalad (Heteranthera limosa); test: as above; details: 250 g ai/ha, Flood, applied to paddy water, evaluated after 13 days
Method in brief: as §1

corn (Zea mays) [4] = test: Test A postemergence application, visual injury rating 0-100; details: 10 days
Method in brief: (§2)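 Visual injury ratings (0, no effect; 100, complete control) were assigned relative to untreated plants 10 days after treatment. Test chemicals, formulated with a surfactant-containing non-phytotoxic solvent, were applied in loam-sand soil either as a directed soil spray before emergence or to emerged plants, and plants were kept in a greenhouse.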

[5] = system: wheat (Triticum aestivum); test: as above; details: 10 days
Method in brief: as §2

[6] = system: ryegrass, Italian (italian ryegrass, Lolium multiflorum); test: as above; details: 10 days
Method in brief: as §2

[7] = system: ragweed (common ragweed, Ambrosia artemisiifolia); test: as above; details: 10 days
Method in brief: as §2

[8] = system: horseweed (Erigeron canadensis); test: as above; details: 10 days
Method in brief: as §2

[9] = system: barnyardgrass (Echinochloa crus-galli); test: as above; details: 10 days
Method in brief: as §2

[10] = system: palmer (palmer amaranth, palmer pigweed, Amaranthus palmeri); test: as above; details: 10 days
Method in brief: as §2

[11] = system: green foxtail (Setaria viridis); test: as above; details: 10 days
Method in brief: as §2

kochia (Bassia scoparia) [12] = test: as above; details: 10 days
Method in brief: as §2

soybean (Glycine max) [13] = test: as above; details: 10 days
Method in brief: as §2

[14] = system: oat, wild (wild oat, Avena fatua); test: as above; details: 10 days
Method in brief: as §2

[15] = system: blackgrass (Alopecurus myosuroides); test: as above; details: 10 days
Method in brief: as §2

corn (Zea mays) [16] = test: Test A preemergence soil spray, visual injury rating 0-100; details: 10 days, 0 = no effect, 100 = complete control
Method in brief: as §2

[17] = system: wheat (Triticum aestivum); test: as above; details: 10 days, 0 = no effect, 100 = complete control
Method in brief: as §2

[18] = system: ryegrass, Italian (italian ryegrass, Lolium multiflorum); test: as above; details: 10 days, 0 = no effect, 100 = complete control
Method in brief: as §2

[19] = system: ragweed (common ragweed, Ambrosia artemisiifolia); test: as above; details: 10 days, 0 = no effect, 100 = complete control
Method in brief: as §2

[20] = system: barnyardgrass (Echinochloa crus-galli); test: as above; details: 10 days, 0 = no effect, 100 = complete control
Method in brief: as §2

[21] = system: palmer (palmer amaranth, palmer pigweed, Amaranthus palmeri); test: as above; details: 10 days, 0 = no effect, 100 = complete control
Method in brief: as §2

[22] = system: green foxtail (Setaria viridis); test: as above; details: 10 days, 0 = no effect, 100 = complete control
Method in brief: as §2

kochia (Bassia scoparia) [23] = test: as above; details: 10 days, 0 = no effect, 100 = complete control
Method in brief: as §2

soybean (Glycine max) [24] = test: as above; details: 10 days, 0 = no effect, 100 = complete control
Method in brief: as §2

[25] = system: oat, wild (wild oat, Avena fatua); test: as above; details: 10 days, 0 = no effect, 100 = complete control
Method in brief: as §2

[26] = system: blackgrass (Alopecurus myosuroides); test: as above; details: 10 days, 0 = no effect, 100 = complete control
Method in brief: as §2

[27] = 31 g ai/ha, postemergence, 0 = no effect, 100 = complete control
[28] = Postemergence, 125 g ai/ha, 0 is no effect, 100 is complete control

COC(=O)C1CCC(NC(=O)C2(C)CN(c3cc(F)cc(F)c3)C(=O)O2)C1 (centres unmarked) [Compounds 10]
Plant response rating, Sedge, Umbrella (0 to 100 scale, 0 is no effect and 100 is complete control) [1]: 100 | Plant response rating, Rice (0 to 100 scale, 0 is no effect and 100 is complete control) (rice (Oryza sativa)): 10 | Plant response rating, Barnyardgrass (0 to 100 scale, 0 is no effect and 100 is complete control) [2]: 50 | Plant response rating, Ducksalad (0 to 100 scale, 0 is no effect and 100 is complete control) [3]: 100 | Corn plant response rating (0-100) (corn (Zea mays) [4]; [27]): 40 | Corn plant response rating (0 to 100 scale) (corn (Zea mays) [4]; [28]): 100 | Wheat plant response rating (0-100) [5, 27]: 80 | Wheat plant response rating (0 to 100 scale) [5, 28]: 90 | Ryegrass, Italian plant response rating (0-100) [6, 27]: 60 | Ryegrass, Italian plant response rating (0 to 100 scale) [6, 28]: 80 | Ragweed plant response rating (0-100) [7, 27]: 0 | Ragweed plant response rating (0 to 100 scale) [7, 28]: 0 | Horseweed plant response rating (0-100) [8, 27]: 30 | Horseweed plant response rating (0 to 100 scale) [8, 28]: 40 | Barnyardgrass plant response rating (0-100) [9, 27]: 60 | Barnyardgrass plant response rating (0 to 100 scale) [9, 28]: 100 | Amaranth, Palmer plant response rating (0-100) [10, 27]: 10 | Amaranth, Palmer / Pigweed, Palmer plant response rating (0 to 100 scale) [10, 28]: 80 | Foxtail, Green plant response rating (0-100) [11, 27]: 20 | Foxtail, Green plant response rating (0 to 100 scale) [11, 28]: 90 | Kochia plant response rating (0-100) (kochia (Bassia scoparia) [12]; [27]): 20 | Kochia plant response rating (0 to 100 scale) (kochia (Bassia scoparia) [12]; [28]): 70 | Soybean plant response rating (0-100) (soybean (Glycine max) [13]; [27]): 50 | Soybean plant response rating (0 to 100 scale) (soybean (Glycine max) [13]; [28]): 70 | Oat, Wild plant response rating (0-100) [14, 27]: 90 | Oat, Wild plant response rating (0 to 100 scale) [14, 28]: 90 | Blackgrass plant response rating (0-100) [15, 27]: 50 | Blackgrass plant response rating (0 to 100 scale) [15, 28]: 90 | Corn plant response rating (0-100) (corn (Zea mays) [16]; 31 g ai/ha): 0 | Corn plant response rating (0 to 100 scale) (corn (Zea mays) [16]; 125 g ai/ha): 70 | Wheat plant response rating (0-100) ([17]; 31 g ai/ha): 90 | Wheat plant response rating (0 to 100 scale) ([17]; 125 g ai/ha): 90 | Ryegrass, Italian plant response rating (0-100) ([18]; 31 g ai/ha): 10 | Ryegrass, Italian plant response rating (0 to 100 scale) ([18]; 125 g ai/ha): 90 | Ragweed plant response rating (0-100) ([19]; 31 g ai/ha): 0 | Ragweed plant response rating (0 to 100 scale) ([19]; 125 g ai/ha): 0 | Barnyardgrass plant response rating (0-100) ([20]; 31 g ai/ha): 10 | Barnyardgrass plant response rating (0 to 100 scale) ([20]; 125 g ai/ha): 90 | Amaranth, Palmer plant response rating (0-100) ([21]; 31 g ai/ha): 0 | Amaranth, Palmer plant response rating (0 to 100 scale) ([21]; 125 g ai/ha): 40 | Foxtail, Green plant response rating (0-100) ([22]; 31 g ai/ha): 0 | Foxtail, Green plant response rating (0 to 100 scale) ([22]; 125 g ai/ha): 90 | Kochia plant response rating (0-100) (kochia (Bassia scoparia) [23]; 31 g ai/ha): 20 | Kochia plant response rating (0 to 100 scale) (kochia (Bassia scoparia) [23]; 125 g ai/ha): 90 | Soybean plant response rating (0-100) (soybean (Glycine max) [24]; 31 g ai/ha): 10 | Soybean plant response rating (0 to 100 scale) (soybean (Glycine max) [24]; 125 g ai/ha): 50 | Oat, Wild plant response rating (0-100) ([25]; 31 g ai/ha): 50 | Oat, Wild plant response rating (0 to 100 scale) ([25]; 125 g ai/ha): 80 | Blackgrass plant response rating (0-100) ([26]; 31 g ai/ha): 30 | Blackgrass plant response rating (0 to 100 scale) ([26]; 125 g ai/ha): 90
